Biological target: Human Polθ polymerase domain (aa1820-2590) (Homo sapiens (Human), UniProt O75417)
Experiment: Polθ Polymerase Domain WT Ki Assay (PicoGreen assay)
Type: biochemical
Settings: average of repeat determinations; 100 nM DNA substrate, 50 μM dNTPs, 0.156 nM Polθ
Protocol: A PicoGreen assay was used to measure the K, values of reversible compounds that inhibit the activity of Polθ in vitro.
Human Polθ polymerase domain (aa1820-2590) was expressed in E. Coli, purified, aliquoted and stored at −80° C. until required. Polθ substrate was generated from a 1.2:1 mix of DNA II Short to DNA II Long to give a final concentration of […] substrate in annealing buffer (20 mM Tris pH 7.5, 50 mM NaCl). The substrate was heated in 50 mL aliquots to 95° C. in a heating block for 5 min before the heating block switched off, the reaction left to cool to rt and stored at −20° C. until required.
Assay measurements were performed with 1× buffer comprising 25 mM Tris pH 7.5, 12.5 mM NaCl, […], 5% (v/v) glycerol, 0.01% v/v Triton x-100, 0.1 mg/ml BSA, 1 mM DTT. […]
To stop the reaction, 5 μL of a solution containing 25 mM Tris-HCl pH 7.5 and 20 mM EDTA was added at […] (t=0, 15, 30, 60, 90, 120, 150, 180 mins) using the Tempest's time delay function. […] After completing the assay, 5 μL of detection reagent (25 mM Tris-HCl pH 7.5 and 2.5% (v/v) PicoGreen) was dispensed into the wells using a Tempest liquid handler (Formulatrix) and plates subsequently read on the CLARIOstar Plus (BMG Labtech) using the default optical settings for fluorescein and the auto gain/focus settings. […]

Human Polθ polymerase domain (aa1820-2590), sequence (O75417 1820-2590): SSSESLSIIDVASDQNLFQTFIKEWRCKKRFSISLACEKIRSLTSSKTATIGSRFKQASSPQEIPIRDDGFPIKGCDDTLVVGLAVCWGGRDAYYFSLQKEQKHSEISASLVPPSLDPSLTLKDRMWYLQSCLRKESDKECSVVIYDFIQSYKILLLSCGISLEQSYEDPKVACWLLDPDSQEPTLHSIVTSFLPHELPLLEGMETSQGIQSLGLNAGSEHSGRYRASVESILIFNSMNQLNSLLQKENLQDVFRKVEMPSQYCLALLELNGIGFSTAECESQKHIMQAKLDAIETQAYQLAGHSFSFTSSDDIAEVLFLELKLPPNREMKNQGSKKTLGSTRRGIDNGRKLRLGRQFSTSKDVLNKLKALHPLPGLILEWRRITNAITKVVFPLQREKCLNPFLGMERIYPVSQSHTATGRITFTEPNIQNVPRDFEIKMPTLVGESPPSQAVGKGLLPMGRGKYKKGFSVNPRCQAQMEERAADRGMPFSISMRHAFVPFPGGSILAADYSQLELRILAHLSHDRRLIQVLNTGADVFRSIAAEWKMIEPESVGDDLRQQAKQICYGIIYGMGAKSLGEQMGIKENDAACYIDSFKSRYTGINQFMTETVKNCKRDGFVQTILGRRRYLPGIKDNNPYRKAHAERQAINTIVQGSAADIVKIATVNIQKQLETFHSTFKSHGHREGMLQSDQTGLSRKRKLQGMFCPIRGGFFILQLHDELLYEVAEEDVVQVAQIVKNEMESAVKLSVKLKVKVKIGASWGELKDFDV

Ki: 1.27 nM
SMILES: Cc1cc(C(F)(F)F)cc(N2C(=O)C[C@@H]3CN(CCN4CCN(C)CC4)c4c(C)cccc4N(C)C(=O)[C@H]32)n1 [Example 1, (3aR,11aS)-6,10-Dimethyl-1-(6-methyl-4-(trifluoromethyl)pyridin-2-yl)-5-(2-(4-methylpiperazin-1-yl)ethyl)-1,3a,4,5,10,11a-hexahydro-2H-benzo[b]pyrrolo[2,3-f][1,4]diazocine-2,11(3H)-dione]

From patent US20240425511A1, “HETEROCYCLIC COMPOUNDS FOR USE IN THE TREATMENT OF CANCER” (ARTIOS PHARMA LIMITED, priority 2021, published 2024)
